According to publication PMC6340882, “Targeting protein kinase CK2 and CDK4/6 pathways with a multi-kinase inhibitor ON108110 suppresses pro-survival signaling and growth in mantle cell lymphoma and T-acute lymphoblastic leukemia” (Oncotarget, 2018):

Assays:
Format in all cases: cell-based, human
Granta-519 cells = test: Caspase Glo 3/7 caspase activation assay; conditions: increasing concentrations, 24 hours
Protocol: Figure 5 Modulation of cell cycle expression and induction of apoptosis in ON 108110-treated MCL and T-ALL cell lines (A) CEM and Granta-519 cells were treated with either DMSO or increasing concentrations of ON108110 (0.5-2.0μM) for 24 hours. Cell cycle analysis was performed using propidium iodide staining. (B) CEM, HBL-2, RS4-11 and Granta-519 cells were treated with either DMSO (vehicle) or increasing concentrations of ON108110 (0.5-2.0 μM) for 24 hours and stained with Annexin V/DAPI (C) Graphical representation of apoptosis induced as shown in B. (D) Granta-519 cells were treated with increasing concentrations of ON108110 for 24 hours. Caspase activation and viability were measured using the Caspase Glo 3/7 and Cell Titer Blue assay kits, respectively. TEXT PRINTED IN THE PICTURE: (B) DMSO: 1.31; 2.34; 94.5; 1.65 | (B) ON108110: 2.21 (0.5μM); 4.32 (0.5μM); 91.1 (0.5μM); 2.37 (0.5μM); 1.64 (1.0μM); 15 (1.0μM); 80.8 (1.0μM); 2.62 (1.0μM); 4.83 (2.0μM); 60.7 (2.0μM); 28.9 (2.0μM); 5.58 (2.0μM) DOUBTS OF THE COPYIST ABOUT THIS PICTURE: Panel B: the quadrant numbers in the Annexin V/DAPI plots have no printed measure or unit. […]
Caspase-3/7 activation was measured using the Caspase-Glo® 3/7 kit as recommended by the manufacturer (Promega).

[1] = Growth inhibition (GI50), Cell Titer Blue; conditions: normal human peripheral blood mononuclear cells (hPBMC); hPBMC, Normal Human Peripharal Mononuclear Cells; 96 hrs post-treatment
Protocol: (§1) Cell lines were cultured in RPMI-1640 medium (Thermo Scientific) supplemented with 10% heat inactivated FBS and penicillin-streptomycin at 37°C under humidified conditions and 5% CO2. All cell lines tested negative for mycoplasma. […] Compounds were added 24 hrs post-plating at the indicated concentrations. Cell counts were determined from duplicate wells 96 hrs post-treatment using the Cell Titer Blue assay in conjunction with the GloMax plate reader (Promega).
(§2) Peripheral blood samples were obtained from patients at the Icahn School of Medicine at Mount Sinai with informed and written consent for tissue banking following a protocol approved by the Institutional Review Board (MSSM IRB#11-1669) and in accordance with the Declaration of Helsinki. Peripheral blood mononuclear cells were pelleted by low-speed centrifugation, resuspended in media composed of 90% fetal bovine serum (FBS) and 10% DMSO (Sigma), frozen slowly in the vapor phase of liquid nitrogen in multiple cryovials, and stored in liquid nitrogen.

hPBMC = test: Growth inhibition (GI50), Cell Titer Blue; conditions: normal human cells (Table 1)
Protocol: as §1, §2

[2] = system: phospho-PTEN Ser380 and AKT Ser129 in CEM and Granta-519 cells; test: Western blot of CK2-mediated PTEN and AKT phosphorylation; conditions: CEM and Granta-519, 24 hours
Protocol: (§3) Figure 6 Inhibition of CK2/CDK4 mediated signaling by ON108110 (A) CEM and (B) Granta-519 cells were treated with increasing concentrations of ON 108110 for 24 hours. Whole cell extracts were subjected to western blot analysis using antibodies directed against the indicated proteins. GAPDH is shown as a loading control.
(§4) Cells were grown as indicated, lysed in lysis buffer (20mM Tris, pH 8.0/ 137mM NaCl/ 10% glycerol/ 1% NP-40) supplemented with 1X protease and phosphatase inhibitor cocktail on ice and resolved by SDS-PAGE. The proteins were transferred to a nitrocellulose membrane and subjected to Western blot analysis using the indicated antibodies. Proteins were visualized using an Odyssey imaging system (LI-COR Biosciences).

[3] = system: MCL and ALL cell lines as well as normal PBMCs; test: GI50 of MCL and ALL cell lines compared to normal PBMCs (Figure 4C); conditions: MCL and T-ALL cell lines vs PBMCs in vitro, 72 hours post-treatment
Protocol: Figure 4 CK2 and CDK4 expression in cell lines and primary samples (A) mRNA levels of CK2 subunits in a panel of MCL and T-ALL leukemic cell lines and normal human PBMCs. (B) Protein levels of CK2 subunits and pRB^Ser807/811 in a panel of MCL and T-ALL leukemic cell lines and normal human PBMCs. (C) Calculation of GI50 values against of ON108110 against MCL and ALL cell lines as well as normal PBMCs 72 hours post-treatment.
Cell lines were cultured in RPMI-1640 medium (Thermo Scientific) supplemented with 10% heat inactivated FBS and penicillin-streptomycin at 37°C under humidified conditions and 5% CO2. All cell lines tested negative for mycoplasma. […] Compounds were added 24 hrs post-plating at the indicated concentrations. […]

[4] = system: CDK4/6-specific RB phosphorylation in Granta-519 and CEM cells; test: Western blot of phosphorylated RB (Ser780 and Ser 807/811); conditions: increasing concentrations, 24 hours
Protocol: as §3, §4

Question: Which “Caspase activity and PARP cleavage” value (Granta-519 cells) does the source give for `CC(=O)Oc1ccc(/C=C2\Sc3ccc(F)cc3NC2=O)cc1[N+](=O)[O-]` [ON108110] here?
Answer: The value was “increased as a function of cell death”.

Question: What about the GI50 at 96 h [1] of the same compound?
Answer: Its GI50 at 96 h is over 5 µM.

Question: And the “cytotoxicity towards normal human cells” value (hPBMC)?
Answer: The value was “little or no cytotoxicity”.

Question: What about the “level of AKT Ser129” value [2] of the same compound?
Answer: Its value is “reduction”.

Question: And the “level of phospho-PTEN Ser380” value [2]?
Answer: Its value is “lower levels”.

Question: And the “fold more sensitive compared to PBMCs (IC50 values)” value [3]?
Answer: Its value is over 100 fold.

Question: And the “CDK4/6-specific RB phosphorylation (Ser780 and Ser 807/811)” value [4]?
Answer: The value was “concentration-dependent inhibition”.
